This note sets out measurements from US8889733B2, “Artonin I to treat resistant infectious Staphylococcus aureus” (priority 2013, dated 2014).

One assay concerns Clinical Isolates. Put plainly: Reversal of Multi-Drug Resistance (MIC/FIC of antibiotics combined with compound 1). The format is cell-based, Staphylococcus aureus. To be noted: for MIC: Staphylococcus aureus, read-out: MIC (a); for MIC / MIC (a): antibiotic alone. The procedure:
(§1) Assay Protocol: Protocol of Chung et al, (2001), with slight modifications, was followed. 5×10 MDR S. aureus cells were treated with 20 μg/mL of test compounds and incubated for 20 hours. Control cells were not exposed to any test compound and antibiotic. In 96-well plate, increasing concentration of antibiotics, along with the fixed concentration of test compounds were added. Inoculum of 5×10^5 cells was applied to all wells. The presence or absence of growth in all combination wells were noted visually and by using the dye Alamar blue.
(§2) Fractional inhibitory concentrations were calculated by the above cited formulae. • FIC of Antibiotic a (FICa)=MIC of Antibiotic a in combination/MIC of antibiotic a alone • FIC of Compound b (FICb)=MIC of Compound b in combination/MIC of compound b alone
(§3) The sum of Fractional Inhibitory Concentration (FICs) index of: (FICa)+(FICb)=(FICs)

The next assay relates to EMRSA-17. The assay is described as above. The format is cell-based, Staphylococcus aureus. The note with it: for FIC (s): FIC (a) + FIC (b), antibiotic plus Compound 1; for FIC (b): FIC of Compound 1 in combination with the antibiotic named as label; for MIC: Staphylococcus aureus, read-out: MIC (a); for MIC / MIC (a): antibiotic alone. The procedure: as §1, §2, §3
Setting [1] is: antibiotic in combination with Compound 1.
[2] abbreviates: FIC of the antibiotic = MIC in combination with Compound 1 / MIC alone.
Setting [3] is: antibiotic in combination with Compound 1, listed as clindamycin.

For `Cc1cc(NS(=O)(=O)c2ccc(N)cc2)no1` [Sulfamethoxazole], the MIC in the assay with Clinical Isolates turned out to be 2050 µg/mL. In addition, the Effect entry in the assay on Clinical Isolates (setting [1]) is recorded as “Synergistic”. In addition, in the assay on EMRSA-17, the FIC (s) was determined as 0.324, the FIC (b) stood at 0.32 and the MIC turned out to be 2080 µg/mL. Also, in the assay with EMRSA-17 (setting [1]), the Effect entry is recorded as “Synergistic” and the “MIC (a + b)” value worked out at 8 µg/mL.
In the case of Penicillin, the “FIC (s)” value is 0.3238 in the assay with Clinical Isolates (FIC (a) + FIC (b), antibiotic plus Compound 1) and 0.164 in the assay with EMRSA-17. The “FIC (b)” value is 0.320 with Clinical Isolates (FIC of Compound 1 in combination with the antibiotic named as label) and 0.16 in the assay on EMRSA-17. Further, the figures for the “FIC (a)” value in the assay on Clinical Isolates (setting [2]) and with EMRSA-17 (setting [2]) were 0.0038 and 0.0039, respectively. Besides, the “MIC (a)” value in the assay on Clinical Isolates and in the assay on EMRSA-17 was 2084 µg/mL in each case. Further, the Effect entry in the assay on Clinical Isolates (setting [1]) and in the assay with EMRSA-17 (setting [1]) was “Synergistic” each time. Also, the “MIC (a + b)” value stood at 8 µg/mL in the assay with Clinical Isolates (setting [1]) and 4 µg/mL with EMRSA-17 (setting [1]).
Consider `O=C(N[C@H](CO)[C@H](O)c1ccc([N+](=O)[O-])cc1)C(Cl)Cl` [Chloramphenicol], for which the MIC with Clinical Isolates amounted to 1020 µg/mL. In addition, in the assay on Clinical Isolates (setting [1]), the Effect result is given as “Synergistic” and the “MIC (a + b)” value came out at 8 µg/mL. Further, in the assay with EMRSA-17, the FIC (s) came out at 0.328, the FIC (b) was 0.32 and the MIC is 1020 µg/mL. Besides, in the assay with EMRSA-17 (setting [1]), the Effect entry is reported as “Synergistic” and the “MIC (a + b)” value came to 8 µg/mL.
Turning to `O=C(O)c1cn(C2CC2)c2cc(N3CCNCC3)c(F)cc2c1=O` [Ciprofloxacin], in the assay with EMRSA-17, the FIC (s) worked out at 0.164 and the FIC (b) was 0.16. For the same molecule, in the assay with EMRSA-17 (setting [1]), the Effect result is listed as “Synergistic” and the “MIC (a + b)” value turned out to be 4 µg/mL.
Consider `[H]/N=C(/N)N[C@H]1[C@H](O)[C@@H](O)[C@H](O[C@@H]2O[C@@H](C)[C@](O)(C=O)[C@H]2O[C@@H]2O[C@@H](CO)[C@H](O)[C@@H](O)[C@@H]2NC)[C@@H](N/C(N)=N\[H])[C@@H]1O` [Streptomycin], for which the MIC with Clinical Isolates worked out at 2050 µg/mL. In the assay with Clinical Isolates (setting [1]), the Effect result is on record as “Synergistic”. Moreover, in the assay with EMRSA-17, the FIC (s) came out at 0.647, the FIC (b) turned out to be 0.64 and the minimum inhibitory concentration (MIC) amounted to 2080 µg/mL. In the assay on EMRSA-17 (setting [1]), the Effect result is given as “Partial” and the “MIC (a + b)” value was 16 µg/mL. For the same molecule, in the assay with EMRSA-17 (antibiotic in combination with Compound 1, listed as streptomycin), the Effect entry is listed as “partial synergistic effect”.
As for `Cc1onc(-c2ccccc2)c1C(=O)N[C@@H]1C(=O)N2[C@@H]1SC(C)(C)[C@@H]2C(=O)O` [Oxacillin], the MIC with Clinical Isolates was found to be 2080 µg/mL. Besides, in the assay with Clinical Isolates (setting [1]), the Effect result is reported as “Synergistic”. In the assay with EMRSA-17, the FIC (s) came to 0.0809, the FIC (b) stood at 0.08 and the MIC came to 4100 µg/mL. Also, in the assay with EMRSA-17 (setting [1]), the Effect entry is given as “Synergistic” and the “MIC (a + b)” value is 2 µg/mL.
For `NCC[C@H](O)C(=O)N[C@@H]1C[C@H](N)[C@@H](O[C@H]2O[C@H](CN)[C@@H](O)[C@H](O)[C@H]2O)[C@H](O)[C@H]1O[C@H]1O[C@H](CO)[C@@H](O)[C@H](N)[C@H]1O` [Amikacin], the MIC in the assay on Clinical Isolates came to 128 µg/mL. Also, the Effect entry in the assay with Clinical Isolates (setting [1]) is on record as “Partial”. In the assay on EMRSA-17, the FIC (s) was found to be 0.351 and the FIC (b) came to 0.32. In addition, in the assay on EMRSA-17 (setting [1]), the Effect entry was “Synergistic” and the “MIC (a + b)” value is 8 µg/mL.
Turning to `CCC[C@@H]1C[C@@H](C(=O)N[C@@H]([C@H]2O[C@H](SC)[C@H](O)[C@@H](O)[C@H]2O)[C@H](C)Cl)N(C)C1` [Clindamicin], the “MIC (a)” value is 4096 µg/mL in the assay on Clinical Isolates, 4096 µg/mL in the assay on EMRSA-17 and 1024 µg/mL in the assay with EMRSA-17 (listed as clindamycin). For the same molecule, the Effect result was “Synergistic” in the assay on Clinical Isolates (setting [1]), “partial synergistic activity” in the assay on Clinical Isolates (setting [3]) and “Synergistic” with EMRSA-17 (setting [1]). The “MIC (a + b)” value worked out at 16 µg/mL in the assay on Clinical Isolates (setting [1]), 8 µg/mL with Clinical Isolates (setting [3]) and 8 µg/mL in the assay with EMRSA-17 (setting [1]). Moreover, the FIC (s) with EMRSA-17 amounted to 0.322. Besides, the FIC (b) with EMRSA-17 was 0.32.

By MIC is commonly meant the smallest concentration in the dilution series that meets the test's criterion for growth inhibition.
